Test results reported in paper PMC8571282 (Nature Communications, 2021).
Where “and” joins values, the source holds several entries; their conditions need not be identical. Identical values can stand only once. Like-named read-outs stand apart in the source and are kept apart here.

Assays:
[1] = Cytotoxicity assay (PrestoBlue), HCT-8; conditions: human, HCT-8 cells
[2] = Single-dose plasma pharmacokinetics in ferrets; conditions: ferret, GS-441524 IV 20 mg/kg, 20 mg/kg
[3] = test system: SARS-CoV-2 (WA1/2020 and VOC α, β, γ); assay: microbe, parasite or virus in culture; assay type: cell-based; conditions: Severe acute respiratory syndrome coronavirus 2, Vero C1008; read-out: Half-maximal effective concentrations (EC50), range
in vitro [4] = conditions: human
[5] = test system: SARS-CoV-2 SA/2020 (β, lineage B.1.351); assay: microbe, parasite or virus in culture; assay type: cell-based; conditions: Severe acute respiratory syndrome coronavirus 2, Vero C1008; SA/2020, VeroE6, mean n=3
[6] = test system: SARS-CoV-2 BZ/2021 (γ, lineage P.1); assay: microbe, parasite or virus in culture; assay type: cell-based; conditions: Severe acute respiratory syndrome coronavirus 2, Vero C1008; BZ/2021, VeroE6, mean n=3
[7] = Cytotoxicity assay (PrestoBlue), “M2” HAE; conditions: human
in vitro [8] = conditions: human, % cell viability, HCT-8, 0.046 µM, 72 h
[9] = Cytotoxicity assay (PrestoBlue), “F3” HAE; conditions: human
“F3” primary HAE cells = assay: Cytotoxicity assay (PrestoBlue), “F3” HAE; conditions: F3 HAE, 72 h
[10] = several species; cited from earlier work
[11] = Cytotoxicity assay (PrestoBlue), “F2” HAE; conditions: human
in vitro [12] = conditions: human; remark: listed apart in the source
[13] = Cytotoxicity assay (PrestoBlue), BHK-21; conditions: hamster, BHK-21 cells
[14] = test system: well-differentiated primary human airway epithelium cultures; assay type: cell-based
[15] = design: method as in Mackman et al 2021 (JMC 2021, 64(8), 5001-5017); conditions: cynomolgus macaques, ref Mackman et al 2021 (JMC 2021, 64(8), 5001-5017); cited from earlier work
[16] = test system: SARS-CoV-2 WA1/2020 (lineage A); assay: microbe, parasite or virus in culture; assay type: cell-based
[17] = test system: SARS-CoV-2-Nluc (WA1/2020-nano luciferase); assay: microbe, parasite or virus in culture; assay type: cell-based
[18] = test system: SARS-CoV-2 gamma isolate (BZ/2021, lineage P.1); assay: microbe, parasite or virus in culture; assay type: cell-based; conditions: Severe acute respiratory syndrome coronavirus 2
[19] = Cytotoxicity assay (PrestoBlue), VeroE6; conditions: African green monkey, VeroE6 cells
[20] = Cytotoxicity assay (PrestoBlue), HEp-2; conditions: human, HEp-2 cells
[21] = design: method as in Mackman et al 2021 (JMC 2021, 64(8), 5001-5017); conditions: rats, ref Mackman et al 2021 (JMC 2021, 64(8), 5001-5017); cited from earlier work
[22] = test system: SARS-CoV-2 CA/2020 (α, lineage B.1.1.7); assay: microbe, parasite or virus in culture; assay type: cell-based; conditions: Severe acute respiratory syndrome coronavirus 2, Vero C1008; CA/2020, VeroE6, mean n=3
“M6” primary HAE cells = assay: Cytotoxicity assay (PrestoBlue), “M6” HAE; conditions: M6 HAE, 72 h
[23] = Cytotoxicity assay (PrestoBlue), “M6” HAE; conditions: human
in vitro [24] = conditions: human, % cell viability, HEp-2, 3.704 µM, 72 h

`N#C[C@@]1(c2ccc3c(N)ncnn23)O[C@H](CO)[C@@H](O)[C@H]1O` [GS-441524] showed a viability at 72 h, 0.046 µM ([1]; % cell viability, HCT-8, 0.046 µM, 72 h) of 74%, a viability at 72 h, 1.235 µM ([1]; % cell viability, HCT-8, 1.235 µM, 72 h) of 89% and a viability at 72 h, 100 µM ([1]; % cell viability, HCT-8, 100 µM, 72 h) of 62%. The CC50 at 72 h ([1]; CC50, HCT-8, 72 h) was over 100000 nM, the “plasma concentration of GS-441524” value ([2]; 0.25 h) was 40.5 and 46.6 and 24.1 and the “plasma concentration of GS-441524” value ([2]; 0.48 h) was 62.4 and 57.2 and 43. For the same compound, the “plasma concentration of GS-441524” value ([2]; 0.58 h) was 51.5 and 48.2 and 37.8, the “plasma concentration of GS-441524” value ([2]; 4 h) was 8.65 and 7.17 and the “plasma concentration of GS-441524” value ([2]; 8 h) was 2.1 and 1.85 and 1.83. For the same compound, the “plasma concentration of GS-441524” value ([2]; 12 h) was 0.669 and 0.467 and 0.448, the EC50 [3] was 110 to 680 nM and the viability at 72 h, 3.704 µM (in vitro [4]; female, % cell viability) was 90%. For the same compound, the CC50 at 72 h (in vitro [4]) was over 100000 nM, the viability at 72 h, 100 µM (in vitro [4]; % cell viability) was 62% and the EC50 [5] was 340 nM. The EC50 [6] was 550 nM, the CC50 at 72 h [7] was over 100000 nM and the viability at 72 h, 0.046 µM (in vitro [8]) was 88%. For the same compound, the viability at 72 h, 0.046 µM ([9]; female, “F3” primary human airway epithelial (HAE) cells, % cell viability, F3 HAE, 0.046 µM) was 87%, the viability at 72 h, 100 µM ([9]; % cell viability, F3 HAE, 100 µM) was 84% and the CC50 at 72 h ([9]; CC50, “F3” HAE) was over 100000 nM. The “% cell viability” value (“F3” primary HAE cells; 0.046 µM) was 90%, the “% cell viability” value (“F3” primary HAE cells; 100 µM) was 86% and 74% and the “oral bioavailability (in words)” value [10] was “poor oral bioavailability”. It also gave a viability at 72 h, 0.046 µM ([11]; female, “F2” primary human airway epithelial (HAE) cells, % cell viability, F2 HAE, 0.046 µM) of 92%, a viability at 72 h, 100 µM ([11]; % cell viability, F2 HAE, 100 µM) of 86% and a CC50 at 72 h ([11]; CC50, “F2” HAE) of over 100000 nM. It also gave a CC50 at 48 h (in vitro [12]) of over 50000 nM, a CC50 at 72 h [13] of over 100000 nM and a viability at 72 h, 0.046 µM ([13]; % cell viability, BHK-21, 0.046 µM, 72 h) of 64%. For the same compound, the viability at 72 h, 1.235 µM ([13]; % cell viability, BHK-21, 1.235 µM, 72 h) was 87%, the “basolateral drug concentration at which epithelium integrity (TEER) was fully preserved” value [14] was at least 3 µM and the “oral F” value [15] was 3.4%. The EC50 ([16]; Severe acute respiratory syndrome coronavirus 2, Vero C1008, WA1/2020, VeroE6, mean n=3) was 680 nM, the Virus yield reduction ([16]; WA1/2020, VeroE6, 5.55556 µM, vehicle = 0) was -3.43 and the “A549-hACE2 SARS-CoV-2 Nluc (EC50 determination), normalized signal” value (“A549-hACE2 SARS-CoV-2 Nluc … normalized signal” below) ([17]; Conc 0.005 µM, replicate values of the experiments) was 114.03. The “A549-hACE2 SARS-CoV-2 Nluc … normalized signal” value ([17]; Conc 0.02 µM, replicate values of Exp 1-6) was 66.74 and 93.22 and 117.07 and 119.81 and 81.21, the “A549-hACE2 SARS-CoV-2 Nluc … normalized signal” value ([17]; Conc 0.07 µM, replicate values of Exp 1-6) was 114.55 and 112.96 and 134.59 and 90.75 and the “A549-hACE2 SARS-CoV-2 Nluc … normalized signal” value ([17]; Conc 0.21 µM, replicate values of Exp 1-6) was 92.40 and 126.15. For the same compound, the “A549-hACE2 SARS-CoV-2 Nluc … normalized signal” value ([17]; Conc 3.333 µM, replicate values of the experiments) was 14.96 and 23.34 and 25.42, the “A549-hACE2 SARS-CoV-2 Nluc … normalized signal” value ([17]; Conc 5.56 µM, replicate values of Exp 1-6) was 3.54 and 6.01 and 4.94 and 3.43 and 3.57 and 2.25 and 0.47 and 0.46 and 0.35 and 0.41 and 5.69 and the “A549-hACE2 SARS-CoV-2 Nluc … normalized signal” value ([17]; Conc 10.000 µM, replicate values of the experiments) was 0.35 and 0.30 and 0.32 and 0.31. For the same compound, the “A549-hACE2 SARS-CoV-2 Nluc … normalized signal” value ([17]; Conc 16.67 µM, replicate values of Exp 1-6) was 1.67 and 0.36 (2×) and 0.34 and 1.12 and 1.72 and 1.07 and 0.18 (2×) and 0.21 and 0.23 and 0.31, the “A549-hACE2 SARS-CoV-2 Nluc … normalized signal” value ([17]; Conc 50.00 µM, replicate values of Exp 1-6) was 0.89 and 0.17 (2×) and 0.16 (3×) and 0.55 and 0.87 and 0.59 and 0.19 and 0.20 and 0.18 and the EC50 ([17]; Severe acute respiratory syndrome coronavirus 2, WA1/2020-nano luciferase, A549-ACE2, mean ± SD) was 1400 ± 900 nM. For the same compound, the EC50 [18] was 2830 nM, the CC50 at 72 h [19] was over 100000 nM and the viability at 72 h, 0.046 µM ([19]; % cell viability, VeroE6, 0.046 µM, 72 h) was 60%. For the same compound, the viability at 72 h, 1.235 µM ([19]; % cell viability, VeroE6, 1.235 µM, 72 h) was 75%, the viability at 72 h, 3.704 µM ([19]; % cell viability, VeroE6, 3.704 µM, 72 h) was 84% and the viability at 72 h, 100 µM ([19]; % cell viability, VeroE6, 100 µM, 72 h) was 66%. For the same compound, the viability at 72 h, 0.046 µM ([20]; % cell viability, HEp-2, 0.046 µM, 72 h) was 52%, the viability at 72 h, 100 µM ([20]; % cell viability, HEp-2, 100 µM, 72 h) was 51% and the CC50 at 72 h ([20]; CC50, HEp-2, 72 h) was over 100000 nM. For the same compound, the “oral F” value [21] was 12%, the EC50 [22] was 110 nM and the “% cell viability” value (“M6” primary HAE cells; 0.046 µM) was 87%. For the same compound, the “% cell viability” value (“M6” primary HAE cells; 3.704 µM) was 86%, the CC50 at 72 h [23] was over 100000 nM and the viability at 72 h, 3.704 µM (in vitro [24]) was 93%.
